Experimental data published in patent US7019112B1, “Peptides recognized by melanoma-specific A1-, A2- and A3-restricted cytoxic lymphocytes, and uses therefor” (University of Virginia Patent Foundation, priority 1996, dated 2006).
Entries after “also recorded” stand apart in the source; their conditions may differ. Where two headings read alike, the source gives them in different places. Where no end group is shown, it is not given here.

What was measured:
T2 cells = test: Chromium release assay: reconstitution of epitopes on peptide-pulsed T2 cells for HLA-A2.1-restricted melanoma-specific CTL; settings: for % specific release (of Cr-51), no CTL: T2 + peptide 1 μM; for number of CTL lines/patients recognizing the peptide: HLA-A2.1 restricted melanoma specific CTL lines; for reconstitution of recognition by CTL lines from 3 additional patients: 946 at 0.1–1 nM, other peptides at equal or higher concentrations, FIG. 12; for effect on epitope reconstitution: VMM5 and DM204-13 CTL, concentrations up to 10 nM
Experimental: Cell-mediated killing was determined in vitro using a 4-h chromium release assay. 51Cr-labeled target cells were plated at 2×10^3 cells/well in triplicate on 96-well V-bottom plates (Costar, Cambridge, Mass.) with varying numbers of effector cells in a final volume of 250 microl. Wells containing either culture medium and target cells only or 1 M HCl and target cells served as background 51Cr release controls and total release controls, respectively. The plates were centrifuged at 100×g for 3 min and incubated at 37° C. in 5% CO2 for 4 h. The plates were again centrifuged, and 0.20 ml of medium from each well was removed for counting in a gamma counter. The cytotoxic index was calculated as: Cpm(experimental)−cpm(background)×100% Cpm(total release)−cpm(background) Lytic units were calculated for several of the cytotoxicity assays, using a software package prepared by the National. Cancer Institute (Bethesda, Md.), which solves for the equation y=A×[1−exp(−kx)], where x is the E:T ratio, y is the cytotoxic index, A is the curve maximum, and k is a constant used to calculate the slope of the best fit line. For the purposes of this study, a lytic unit was defined as the number of effector cells needed to mediate […] lysis of target cells. The number of lytic units was calculated per 10^5 effector cells (LU30 per 10^5 cells).
Effector cells were added in 100 microl assay medium to give an E:T ratio of 10:1, and were incubated at 37° C. The remainder of the assay is performed as in standard chromium release assays described above. Wells containing peptide and target cells but no CTL were used as controls to rule out toxicity of the peptides themselves.
HLA-A2.1 molecules were immunoaffinity purified from detergent lysates of the human melanoma cell line DM6. The associated peptides were released by acid extraction, separated from HLA-A2.1 and antibody by filtration, and fractionated by multiple stages of HPLC. […] L. Slingluff Jr., et al, J. Immunol. […] In FIG. 8B Fractions 2 and 3 from the separation shown in panel A were pooled and rechromatographed with a 55 minute gradient of 0 to 30% acetonitrile/0.1% heptafluorobutyric acid (HFBA) in 0.1% HFBA, collecting one-minute fractions. For both panels, peptide: fractions were incubated for 2–3h with 2×10^3 51Cr-labelled T2 cells in […] assay media per well in 96-well plates.
CTL lines VMM5 and VMM6 were generated by stimulation with autologous tumor. VMM5 CTL were maintained on allogeneic. A2.1+melanoma DM6 after specificity was obtained, C. L. Slingluff Jr. et al., J. Immunol. […] DM169-13 and DM204-13 CTL were generated by stimulation with allogeneic A2.1+melanoma DM13, N. J. Crowley et al., J. Immunol. […] LD1 CTL were stimulated on a rotating schedule of stimulating allogeneic A2.1+melanomas DM6, DM13, and DM93. DM93 is an HLA-A2.1+melanoma used as a positive control. […] T2 cells were preincubated with the peptides whose (M+H)^+ values are indicated in the legend, FIG. 12. […] Asterisks (*) mark peptides not evaluated.

C1R-A1 cells [1] = test: Chromium release assay: peptide-pulsed C1R-A1 cells, VMM15 CTL; format: cell-based, human; settings: for reconstitution of an epitope for VMM15 CTL: C1R-A1 pulsed with 10 uM, 1 uM and 0.1 uM peptide, FIG. 22
T2-A3 cells = format: cell-based, human
VMM12-EBV = test: Screen of Pmel-17/gp100 peptides for sensitizing VMM12-EBV cells for lysis by VMM18 CTL; format: cell-based, human; settings: Table 102 (not given)
C1R-A1 cells [2] = test: Chromium release assay: peptide-pulsed C1R-A1 cells, VMM12 CTL; format: cell-based, human; settings: C1R-A1 pulsed with 1 to 0.03 uM peptide; FIG. 23
[3] = tested on: tyrosinase specific CTL clone IVSB; test: Sensitization of target cells for lysis by tyrosinase specific CTL clone IVSB; format: cell-based, human
Source text: T. Wolfei, et. al., Eur. J. Immuno. 24, 759 (1994). […] Even when target cells were pretreated with the monoclonal antibody MA2.1 in order to facilitate exogenous peptide binding to HLA-A2.1. T. Wolfei, et al., Eur. J. Immunol.

VMM12 CTL = test: Recognition of Pmel-17 peptide by VMM12 CTL; format: cell-based, human
Source text: However, VMM12 CTL do recognize and lyse VMM18 melanoma cells. Because the only Class I MHC molecule shared by VMM12 and VMM18 is HLA-A3, it is evident that at least one additional shared CTL epitope is expressed by both of these tumors.

[4] = T2-A3, VMM18 CTL, FIG. 18, read-out: half maximal lysis
[5] = CTL clone IVSB, read-out: half maximal lysis

## CC(C)C[C@H](NC(=O)[C@@H](N)Cc1ccc(O)cc1)C(=O)N[C@@H](CCC(=O)O)C(=O)N1CCC[C@H]1C(=O)NCC(=O)N1CCC[C@H]1C(=O)N[C@H](C(=O)N[C@H](C(=O)N[C@@H](C)C(=O)O)[C@@H](C)O)C(C)C [946L]
T2 cells
  % specific release (of Cr-51), no CTL: -1.4%

## EKCDICTDEY (cysteine pairing not given here) [SEQ ID NO:102]
C1R-A1 cells [1]
  reconstitution of an epitope for VMM15 CTL: also recognized; also recorded: reconstituted

## LLAVGATK [SEQ ID NO:4]
T2-A3 cells; [4]
  EC50: > 1000 nM
VMM12-EBV
  sensitization of VMM12-EBV for lysis by VMM18 CTL: sensitized VMM12-EBV for lysis by VMM18 CTL

## CC[C@H](C)[C@H](NC(=O)[C@@H](N)Cc1ccc(O)cc1)C(=O)N[C@@H](CCC(=O)O)C(=O)N1CCC[C@H]1C(=O)NCC(=O)N1CCC[C@H]1C(=O)N[C@H](C(=O)N[C@H](C(=O)N[C@@H](C)C(=O)O)[C@@H](C)O)C(C)C [946I]
T2 cells
  % specific release (of Cr-51), no CTL: 0.1%

## DAEKCDICTDEY (cysteine pairing not given here) [SEQ ID NO:101]
C1R-A1 cells [1]
  reconstitution of an epitope for VMM15 CTL: also recognized; also recorded: reconstituted
C1R-A1 cells [2]
  reconstitution of an epitope for VMM12 CTL: reconstituted an epitope for these VMM12 CTL, although weakly

## Tyr met Asn Gly Thr Met Ser Gln Val [SEQ ID NO:94]
T2 cells
  number of CTL lines/patients recognizing the peptide: None of 4
[3]; [5]
  EC50: 10000 nM
[3]; target cells pretreated with monoclonal antibody MA2.1, read-out: concentration required to give half-maximal target cell lysis
  EC50: > 1000 nM

## Tyr Xaa Glu Pro Gly Pro Val Thr Ala (YXEPGPVTA; not fully specified; X: randomised place (mixture)) [compound 946]
T2 cells
  reconstitution of recognition by CTL lines from 3 additional patients: reconstituted recognition by each of these 3 lines
  number of CTL lines/patients recognizing the peptide: 5 out of 5
T2 cells; read-out: half-maximal lysis, dose response curves, two of the 3 additional CTL lines
  EC50: 0.001 to 0.01 nM
T2 cells; read-out: half-maximal lysis, other assays
  EC50: 0.001 nM

## YMDGTMSQV [SEQ ID NO:9]
[3]; [5]
  EC50: 100 nM

## Ala-Xaa-Tyr-Asp-Ala-Thr-Tyr-Glu-Thr, wherein Xaa=Leu or Ile [compound 1046]
T2 cells
  reconstitution of recognition by CTL lines from 3 additional patients: neither 864 nor 1046 had any detectable activity
  effect on epitope reconstitution: no effect

## ALLAVGATK [SEQ ID NO:98]
T2-A3 cells; [4]
  EC50: 1 to 10 nM
T2-A3 cells; read-out: half-maximal lysis of T2 cells expressing HLA-A3
  EC50: ~10 nM
VMM12-EBV
  sensitization of VMM12-EBV for lysis by VMM18 CTL: sensitized VMM12-EBV for lysis by VMM18 CTL
VMM12 CTL
  recognition by CTL from patient VMM12: not recognized

## SMAPGNTSV [compound 864]
T2 cells
  reconstitution of recognition by CTL lines from 3 additional patients: neither 864 nor 1046 had any detectable activity
  effect on epitope reconstitution: no effect

## KCDICTDEY [SEQ ID NO:93]
C1R-A1 cells [1]
  half-maximal lysis: approximately 1 ug/ml
  reconstitution of an epitope for VMM15 CTL: most effective, even at the lowest concentration tested; also recorded: reconstituted
C1R-A1 cells [1]; listed as KCDICTDEY
  reconstitution of an epitope for VMM15 CTL: reconstitutes an epitope for VMM15 CTL
C1R-A1 cells [1]; read-out: half-maximal lysis
  EC50: ~1000 nM
